Experimental data reported in US8222416B2, “Azaindole glucokinase activators” (Hoffmann-La Roche Inc., priority 2009, dated 2012).

What follows are compounds tested on C57BL/6J mice (assay: Glucokinase activator in vivo screen, blood glucose after oral gavage in lean and diet induced obese mice). Settings: Mus musculus; vs control at 2 hours post 25 mg/kg oral dose, C57B6 mice; read-out: % gluc lowering @ 2 H.
Protocol: Glucokinase Activator in vivo Screen Protocol in Lean and Diet Induced Obese Mice: Lean or Diet-Induced Obese (DIO) C57BL/6J mice were orally dosed via gavage with Glucokinase (GK) activator following a two hour fasting period. Blood glucose determinations were made at various (e.g. 0, 1, 2, 4 and 8 hours post-oral gavage) times during the study.
C57Bl/6J mice were obtained from Jackson Laboratory (Bar Harbor, Me.) and were maintained in a light-dark cycle with lights on from 0600-1800 hr. For studies in lean mice, the mice were received at age ten weeks and given ad libitum access to control diet (LabDiet 5001 chow, PMI Nutrition, Brentwood, Mo.), and were at least age 11 weeks at the time of study. For studies in the DIO model, the mice were received at age five weeks and given ad libitum access to Bio-Sery F3282 High Fat Diet (Frenchtown, N.J.), and were at least age 16 weeks at the time of study. The experiments were conducted during the light phase of the light-dark cycle. Mice (n=6) are weighed and fasted for a two hour period prior to oral treatment. GK activators are formulated in Gelucire vehicle (Ethanol:Gelucire44/14:PEG400q.s. 4:66:30 v/w/v. For studies in lean mice, the mice were dosed orally with 5.04 per gram of body weight (i.e. 5 ml/kg×10.0 mg/ml formulation to equal a 50 mg/kg dose). For studies in DIO mice, the mice were dosed orally with 5.04 per gram of body weight (i.e. 5.0 ml/kg×5 mg/ml formulation to equal a 25 mg/kg dose). Immediately prior to dosing, a pre-dose (time zero) blood glucose reading was acquired by snipping off a small portion of the animal's tail and collecting […] blood into a heparinized capillary tube for analysis. Following GK activator administration, additional blood glucose readings were taken at various time points post dose from the same tail wound. Results were interpreted by comparing the mean blood glucose values of vehicle treated mice with GK activator treated mice over the study period.
The Table below provides data for % glucose lowering of a representative number of compounds of the present invention vs control at 2 hours post 25 or 50 mg/kg dose in C57B6 mice: […]

| Structure (SMILES) | change in vivo at 25 mg/kg [%] |
| --- | --- |
| CC(C)Oc1cnc2[nH]c([C@H](CC3CCCC3)c3ccc(S(C)(=O)=O)cc3)cc2c1 (single isomer, unassigned) [Example 19] | -14.8 |
| CS(=O)(=O)c1ccc(C(CC2CCCCO2)c2cc3cccnc3[nH]2)cc1 (single isomer, unassigned) [Example 60, 2-[1-(4-Methanesulfonyl-phenyl)-2-(tetrahydro-pyran-2-yl)-ethyl-]-1H-pyrrolo[2,3-b]pyridine] | -29.9 |

What follows are compounds tested against T1, Recombinant human liver GK1 (GST-GK) (Homo sapiens, UniProt P35557) (assay: In vitro glucokinase activity assay (G6PDH-coupled, NADH, OD340)). Settings: concentration of activator that produced a 50% increase in the activity of GK; 5 mM D-glucose, 30° C.
T1 construct: made in house; host or cells: E. coli
T1 sequence (P35557 1-466 isoform P35557-2): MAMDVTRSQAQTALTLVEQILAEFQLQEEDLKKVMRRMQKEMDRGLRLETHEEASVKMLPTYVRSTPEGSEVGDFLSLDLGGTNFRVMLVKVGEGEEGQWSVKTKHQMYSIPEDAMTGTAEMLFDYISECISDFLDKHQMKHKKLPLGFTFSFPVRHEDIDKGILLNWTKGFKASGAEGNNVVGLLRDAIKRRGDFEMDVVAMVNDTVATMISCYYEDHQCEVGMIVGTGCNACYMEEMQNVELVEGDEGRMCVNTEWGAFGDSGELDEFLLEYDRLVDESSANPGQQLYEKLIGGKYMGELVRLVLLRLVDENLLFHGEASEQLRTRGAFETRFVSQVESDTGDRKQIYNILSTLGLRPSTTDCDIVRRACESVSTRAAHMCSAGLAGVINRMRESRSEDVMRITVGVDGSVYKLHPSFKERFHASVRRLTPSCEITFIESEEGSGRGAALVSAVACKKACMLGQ
Format: biochemical
Method in brief: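 GST-fused human liver GK1 from E. coli, run at 30° C. in pH 7.1 HEPES with 5 mM glucose, 1 mM ATP and 10% DMSO, coupled via G6PDH to NADH. OD340 rate measured after enzyme start; SC1.5 is the activator concentration raising activity 50% over DMSO control.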

| SC1.5 [µM] | Structure (SMILES) |
| --- | --- |
| 2.2 | CC(C)(O)c1ccc(C(CC2CCOCC2)c2cc3cc(F)cnc3[nH]2)cc1F (stereo not shown) [Example 97, 2-{2-Fluoro-4-[1-(5-fluoro-1H-pyrrolo[2,3-b]pyridin-2-yl)-2-(tetrahydro-pyran-4-yl)-ethyl]-phenyl}-propan-2-ol] |
| 13.3 | COc1cnc2[nH]c(C(O)(CC3CCC3)c3ccc(S(C)(=O)=O)c(C(F)(F)F)c3)cc2c1 (stereo not shown) [Example 72, 2-Cyclobutyl-1-(4-methanesulfonyl-3-trifluoromethyl-phenyl)-1-(5-methoxy-1H-pyrrolo[2,3-b]pyridin-2-yl)-ethanol] |
| 12.9 | COc1cccc(C(CC(C)C)c2cc3cccnc3[nH]2)c1 (stereo not shown) [Example 134, 2-(1-(3-Methoxy-phenyl)-3-methyl-butyl)-1H-pyrrolo[2,3-b]pyridine] |
| 14.3 | CC(C)CC(c1cccc(N(C)C)c1)c1cc2cccnc2[nH]1 (stereo not shown) [Example 136, N,N-Dimethyl-3-(3-methyl-1-(1H-pyrrolo[2,3-b]pyridine-2-yl)butyl)benzenamine] |
| 0.15 | CS(=O)(=O)c1ccc(C(CC2CCCC2)c2cc3cc(Cl)cnc3[nH]2)cc1 (stereo not shown) [Example 111, 5-Chloro-2-[2-cyclopentyl-1-(4-methanesulfonyl-phenyl)-ethyl]-1H-pyrrolo[2,3-b]pyridine] |
| 2.5 | CS(=O)(=O)Nc1ccc(C(CC2CCCC2)c2cc3cccnc3[nH]2)cc1 (stereo not shown) [Example 75, N-{4-[2-Cyclopentyl-1-(1H-pyrrolo[2,3-b]pyridin-2-yl)-ethyl]-phenyl}-methanesulfonamide] |
| 2.2 | CS(=O)(=O)c1ccc(C(CC2CCOCC2)c2cc3cc(Cl)cnc3[nH]2)cc1 (stereo not shown) [Example 114, 5-Chloro-2-[1-(4-methanesulfonyl-phenyl)-2-(tetrahydro-pyran-4-yl)-ethyl]-1H-pyrrolo[2,3-b]pyridine] |
| 0.854 | CC(C)CC(c1ccc(S(=O)(=O)CCO)cc1)c1cc2cc(F)cnc2[nH]1 (stereo not shown) [Example 101] |
| 0.178 | O=S(=O)(CCO)c1ccc(C(CC2CCCC2)c2cc3cc(F)cnc3[nH]2)cc1 (stereo not shown) [Example 88, 2-{4-[2-Cyclopentyl-1-(5-fluoro-1H-pyrrolo[2,3-b]pyridin-2-yl)-ethyl]-benzenesulfonyl}-ethanol] |
| 15.2 | CC(C)CC(c1cccc(-n2cccn2)c1)c1cc2cccnc2[nH]1 (stereo not shown) [Example 137, 2-(1-(3-(1H-Pyrazol-1-yl)phenyl)-3-methylbutyl)-1H-pyrrolo[2,3-b]pyridine] |
| 0.394 | CC(C)CC(c1ccc(S(C)(=O)=O)cc1)c1cc2cc(F)cnc2[nH]1 (stereo not shown) [Example 99, 5-Fluoro-2-[1-(4-methanesulfonyl-phenyl)-3-methyl-butyl]-1H-pyrrolo[2,3-b]pyridine] |
| 0.607 | CS(=O)(=O)c1ccc([C@@H](CC2CCCC2)c2cc3cc(C(F)(F)F)cnc3[nH]2)cc1 (single isomer, unassigned) [Example 127] |
| 11.0 | CCOC(CC1CCCC1)(c1ccc(S(C)(=O)=O)cc1)c1cc2cccnc2[nH]1 (single isomer, unassigned) [Example 87, 2-[2-Cyclopentyl-1-ethoxy-1-(4-methanesulfonyl-phenyl)-ethyl]-1H-pyrrolo[2,3-b]pyridine] |
| 5.9 | CCC(O)(CC)c1ccc([C@@H](CC2CCCC2)c2cc3cccnc3[nH]2)cc1 (single isomer, unassigned) [Example 84] |

More lines, now with the values behind:

| Structure (SMILES) | SC1.5 [µM] |
| --- | --- |
| CC(C)Oc1cnc2[nH]c([C@H](CC3CCCC3)c3ccc(S(C)(=O)=O)cc3)cc2c1 (single isomer, unassigned) [Example 19] | 0.414 |
| CS(=O)(=O)c1ccc(C(CC2CCCCO2)c2cc3cccnc3[nH]2)cc1 (single isomer, unassigned) [Example 60, 2-[1-(4-Methanesulfonyl-phenyl)-2-(tetrahydro-pyran-2-yl)-ethyl-]-1H-pyrrolo[2,3-b]pyridine] | 0.451 |
| COc1cnc2[nH]c(C(CC3CCCC3)c3ccc(C(F)(F)F)cc3)cc2c1 (stereo not shown) [Example 20, 2-[2-Cyclopentyl-1-(4-trifluoromethyl-phenyl)-ethyl]-5-methoxy-1H-pyrrolo[2,3b]pyridine] | 0.693 |
| CS(=O)(=O)c1ccc(C(CC2CCCC2)c2cc3cc(C(=O)NCCO)cnc3[nH]2)cn1 (stereo not shown) [Example 59, 2-[2-Cyclopentyl-1-(6-methanesulfonyl-pyridin-3-yl)-ethyl]-1H-pyrrolo[2,3-b]pyridin-5-carboxylic acid(2-hydroxy-ethyl)-amide] | 5.5 |
| CC(C)CC(c1ccc(S(C)(=O)=O)cc1)c1cc2cc(C(=O)NC(C)C)cnc2[nH]1 (stereo not shown) [Example 1, 2-[1-(4-Methanesulfonyl-phenyl)-3-methyl-butyl]-1H-pyrrolo[2,3-b]pyridin-5-carboxylic acid isopropylamide] | 19.0 |
| CN(C)C(=O)COc1cnc2[nH]c(C(CC3CCCC3)c3ccc(S(C)(=O)=O)cc3)cc2c1 (stereo not shown) [Example 13, 2-{2-[2-Cyclopentyl-1-(4-methanesulfonyl-phenyl)-ethyl]-1H-pyrrolo[2,3-b]pyridin-5-yloxy}-N,N-dimethyl-acetamide] | 2.0 |
| CNC(=O)c1cnc2[nH]c(C(CC3CCCC3)c3ccc(S(C)(=O)=O)cc3)cc2c1 (stereo not shown) [Example 5, 2-[2-Cyclopentyl-1-(4-methanesulfonyl-phenyl)-ethyl]-1H-pyrrolo[2,3-b]pyridin-5-carboxylic acid methylamide] | 1.9 |
| CS(=O)(=O)c1ccc(C(CC2CCCC2)c2cc3cc(CC(O)CO)cnc3[nH]2)cc1 (stereo not shown) [Example 11, 3-{2-[2-Cyclopentyl-1-(4-methanesulfonyl-phenyl)-ethyl]-1H-pyrrolo[2,3-b]pyridin-5-yl}-propane-1,2-diol] | 7.3 |
| COCCCc1cnc2[nH]c(C(CC3CCCC3)c3ccc(S(C)(=O)=O)cc3)cc2c1 (stereo not shown) [Example 44, 2-[2-Cyclopentyl-1-(4-methanesulfonyl-phenyl)-ethyl]-5-(3-methoxy-propyl)-1H-pyrrolo[2,3-b]pyridine] | 4.3 |
| CS(=O)(=O)c1ccc(C(CC2CCCC2)c2cc3cc(C#N)cnc3[nH]2)cc1 (stereo not shown) [Example 52, 2-[2-Cyclopentyl-1-(4-methanesulfonyl-phenyl)-ethyl]-1H-pyrrolo[2,3-b]pyridin-5-carbonitrile] | 0.37 |
| COc1cnc2[nH]c(C(CC3CCCO3)c3ccc(S(C)(=O)=O)cc3)cc2c1 (single isomer, unassigned) [Example 23, 2-[1-(4-Methanesulfonyl-phenyl)-2-(tetrahydro-furan-2-yl)-ethyl]-5-methoxy-1H-pyrrolo[2,3-b]pyridine] | 21.9 |
| FC(F)(F)c1ccc(C(CC2CCOCC2)c2cc3cccnc3[nH]2)cc1 (stereo not shown) [Example 68, 2-[2-(Tetrahydro-pyran-4-yl)-1-(4-trifluoromethyl-phenyl)-ethyl]-1H-pyrrolo[2,3-b]pyridine] | 0.888 |
| N#Cc1ccc(C(CC2CCCC2)c2cc3cc(F)cnc3[nH]2)cc1 (stereo not shown) [Example 50, 4-[2-Cyclopentyl-1-(5-fluoro-1H-pyrrolo[2,3-b]pyridin-2-yl)-ethyl]-benzonitrile] | 0.603 |
| CC(C)(CO)Oc1cnc2[nH]c([C@H](CC3CCCC3)c3ccc(S(C)(=O)=O)cc3)cc2c1 (single isomer, unassigned) [Example 29] | 1.1 |
| CCOC(=O)C(C)(C)Oc1cnc2[nH]c(C(CC3CCCC3)c3ccc(S(C)(=O)=O)cc3)cc2c1 (stereo not shown) [Example 26, 2-{2-[2-Cyclopentyl-1-(4-methanesulfonyl-phenyl)-ethyl]-1H-pyrrolo[2,3-b]pyridin-5-yloxy}-2-methyl-propionic acid ethyl ester] | 2.3 |
